Structures are written as SMILES.

A short description of this data set: gradient 5% acetonitrile 3 min, to 50% in 2 min, to 85% in 15 min, held 3 min, 100 µL/min. The settings on record: column: Zorbax Extend-C18 2.1 x 50 mm; eluents: water / acetonitrile, 0.1% formic acid. Put shortly: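 Retention time was recorded from adduct peaks, which were picked computationally and each inspected manually. Pure standards ran in mixtures of ~100 molecules on HPLC coupled to a quadrupole time-of-flight mass spectrometer, in positive and negative ionization mode, through a Zorbax Extend-C18 column (2.1 × 50 mm, 1.8 μm) at 100 μL/min. Eluents were water and acetonitrile, each with 0.1% formic acid.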
On to `CCN1CCC2(CC1)N=C(c1ccc(Br)cc1)CC(c1cccc(OC)c1O)N2` (centres undefined), for which the RP-LC retention time was determined as 618 s.
Turning to `O=C(NCc1ccc(C(F)(F)F)cc1)c1c(O)c2cccnc2n(-c2ccccc2)c1=O`, the RP-LC retention time amounted to 1230 s.
For `CCOc1ccc(NC(=O)Nc2nccn(-c3ccccc3)c2=O)cc1`, the RP-LC retention time is 913 s.
The figure for `O=C(Nc1cnc(N2CCOCC2)c(C(=O)O)c1)c1ccc(Br)cc1` is 715 s.
The figure for `Cc1ccc(N(C)S(=O)(=O)c2ccccc2-c2nc(-c3ccccc3)no2)cc1` is 1200 s; for `CCCn1cc(C(=O)NCCN2CCCC2)c2cccnc21` it is 589 s.
`CCCc1nc2cccnc2n1C1CCN(C(=O)c2ccc(OC)nc2)C1` (centres undefined) yielded an RP-LC retention time of 588 s.
Under `Cn1c(SCC(=O)Nc2ncccn2)nnc1-c1ccc2c(c1)OCO2` stands 579 s.
The figure for `Cc1nn(C(C)C(=O)Nc2cccc(Cl)c2)c(=O)c2c(-n3cccc3)n(-c3ccccc3)nc12` (centres undefined) is 1200 s; for `CCN1C(=O)COc2ccc(-c3csc(NC(=O)c4ccncc4)n3)cc21` it is 748 s; for `CCN(C(=O)C1CCN(S(=O)(=O)c2ccc3c(c2)sc(=O)n3CC)CC1)c1ccccc1` it is 942 s.
The figure for `CCCNC(=O)C1CCCN(c2nc3ncn(CC(=O)Nc4ccc(F)cc4F)c(=O)c3s2)C1` (centres undefined) is 684 s; for `CCCc1ccc(S(=O)(=O)N2CCC(n3cnc4ccc(C)cc4c3=O)CC2)cc1` it is 1100 s.
In the case of `CCOC(=O)c1noc2nc(C)nc(NCCCN3CCN(c4cc(C)ccc4C)CC3)c12`, the RP-LC retention time turned out to be 774 s.
Under `CCn1nc(C(=O)Nc2nc3c(OC)ccc(C)c3s2)cc1C` stands 872 s; under `Cc1nn(-c2nc(-c3ccc(F)cc3)cs2)c(C)c1CC(=O)Nc1cccc(Cl)c1`, 772 s; under `O=C(NC1(c2nc(-c3ccncc3)no2)CCCCC1)c1ccccc1F`, 911 s.
The figure for `Cn1c(C2CCN(C(=O)c3cccc(Cl)c3)C2)nc2cccnc21` (centres undefined) is 688 s.
The molecule `CC1=C(c2ccccc2)S(=O)(=O)N=C1N1CCCN(C(=O)c2ccccc2C)CC1` registered an RP-LC retention time of 808 s.
Under `CCc1noc(NC(C)=O)c1-c1ccc(OC)c(S(=O)(=O)Nc2ccc(F)c(F)c2)c1` stands 792 s.
Consider `COc1ccc(NC(=O)N2CCN(c3cnn4c(C)nnc4c3)CC2)cc1OC`, for which the RP-LC retention time amounted to 577 s.
Under `Nc1cc(C2CCN(C(=O)Nc3ccc(Cl)cc3)CC2)no1` stands 722 s.
The figure for `CCc1nc2ccc(-c3noc(-c4ccsc4)n3)cc2n1CC` is 698 s; for `Cc1ccc(C2Cn3nnc(C(=O)NCC4CC4)c3CO2)cc1` (centres undefined) it is 873 s; for `CC(C)(C)NC(=O)N1CCN(Cc2nc3cccnc3n2-c2cccc(F)c2)CC1` it is 648 s.
Under `CC(C)CN(C1CCN(C)CC1)C1CN(C(=O)c2cccs2)C1` stands 586 s; under `CCN1CCN(CCCNC(=O)c2c(-c3ccc(Br)s3)noc2C)CC1`, 594 s.
Regarding `O=C(CN(CC1CCCO1)C(=O)c1ccc(Cl)cc1)N1CCNCC1` (centres undefined), the RP-LC retention time turned out to be 605 s.
Under `Cc1oc(C2CCN(S(=O)(=O)CCc3ccccc3)CC2)nc1C(=O)N1CCCC1` stands 917 s; under `Cc1cc(C)n2ncc(-c3ccc(C)c(S(=O)(=O)NCc4ccc(F)cc4Cl)c3)c2n1`, 1080 s.
The figure for `COc1ccc(-c2nnc(COc3ccc(NC(=O)c4ccc(Cl)nc4)cc3)o2)cc1` is 877 s.
The figure for `O=C(Nc1ncnc2sccc12)C1COc2ccccc2O1` (centres undefined) is 718 s; for `Cc1ccc2c(c1)N(Cc1cc(F)cc(F)c1)N=C(C(=O)N1CCCC1)S2(=O)=O` it is 900 s; for `COc1cc(-c2nc3ncccn3c2Nc2ccc(C)c(C)c2)ccc1O` it is 683 s.
`O=C(CCc1nc2ccccc2s1)N1[C@H]2CC[C@@H]1c1cnc(-c3ccccc3)nc1C2` returned an RP-LC retention time of 902 s.
Under `CCN(C(=O)Cn1nc2cc(-c3ccccc3)nc(C)n2c1=O)c1ccccc1` stands 985 s; under `O=C(Cc1ccccc1F)N1CCC(Nc2ncnc3c2CCC3)C1` (centres undefined), 599 s; under `CCc1nc(-c2csc(S(=O)(=O)N3CCC(C(=O)Nc4ccc(F)cc4Cl)CC3)c2)no1`, 1040 s.
Under `CSc1cccc(NC(=O)N2CCCC(C)(C(=O)NCc3ccccc3)C2)c1` (centres undefined) stands 951 s.
The figure for `Cc1cc(C)c(C(=O)N2CCCC(C(=O)N3CCN(c4cccc(C)c4C)CC3)C2)[nH]1` (centres undefined) is 996 s; for `COc1ccc(NS(=O)(=O)c2cn(C(C)C)c3ncccc23)cc1` it is 840 s; for `Cc1cccc(-c2noc(Cn3ccn(-c4ccccc4C)c(=O)c3=O)n2)c1` it is 865 s.
On to `CCc1noc(-c2ccc(-n3ncc(C(=O)N4CCN(C)CC4)c3C)nc2)n1`, for which the RP-LC retention time was 618 s.
`CCc1nn2c(CNC(=O)c3ccn(CC)n3)c(-c3ccccc3)nc2s1` gave an RP-LC retention time of 822 s.
The figure for `Cc1ccc(-c2cc(C(=O)N3CCCC3)n(C)c2)cc1` is 965 s.
The figure for `O=C(O)CC(CC(=O)NCc1ccccc1)c1ccc(Br)cc1` (centres undefined) is 712 s; for `O=C(Nc1cccnc1)C1CCN(S(=O)(=O)c2cc(-c3noc(C4CCC4)n3)cs2)CC1` it is 762 s; for `CN1C(=O)c2cc(S(=O)(=O)Nc3ccc4c(c3)OCO4)ccc2Oc2cccnc21` it is 850 s.
The figure for `Cc1ccc(C)c(Nc2c(-c3cc(Br)ccc3O)nc3ncccn23)c1` is 1100 s; for `O=S(=O)(Cc1ccccc1)N1CCC(OCCOCc2ccccc2)CC1` it is 1040 s; for `Cc1cc(C)cc(OCc2nc(CCN(C)C(=O)c3cccs3)no2)c1` it is 974 s.
`CC(C)Cc1nc2cccnc2n1C1CCN(C(=O)Nc2ccccc2)CC1`: the RP-LC retention time was found to be 677 s.
Under `CC(NC(=O)c1ccc(CN2CCN(Cc3ccccc3)C(=O)C2=O)cc1)c1ccccc1` (centres undefined) stands 812 s; under `O=C(NCc1ccccc1F)c1sc2ncccc2c1-n1cccc1`, 961 s.
As for `CCOc1cccc(-c2noc(CN3C(=O)C(C)Oc4ccccc43)n2)c1` (centres undefined), the RP-LC retention time stood at 1140 s.
The figure for `COc1ccc(-c2ncc(C(=O)Nc3ccc(OC)c(OC)c3)c(-c3ccncc3)n2)cc1` is 769 s; for `CC(C)(C)c1noc(-c2cccnc2-n2cnc(C(=O)NC3CCCC3)c2)n1` it is 968 s.
For the molecule `CCOC(=O)CCC(=O)Nc1cccc2ccc(OC)nc12`, the RP-LC retention time was 904 s.
Under `Cc1oc(C2CCN(S(=O)(=O)CCc3ccccc3)CC2)nc1C(=O)N(C)C` stands 816 s.
In the case of `CCc1nnc(-c2ccc3ccn(CC(=O)N4CCN(c5ccccn5)CC4)c3c2)o1`, the RP-LC retention time was determined as 614 s.
The figure for `CCC(C)(C)C(=O)N1CC(c2nc(-c3ccccc3)no2)C2(CCOCC2)C1` (centres undefined) is 553 s; for `CN1CCC2(CC1)CN(C(=O)Cn1c(=O)oc3ccccc31)Cc1ccccc1O2` it is 644 s.
Turning to `Cc1oc(-c2[nH]ncc2C(=O)N2CCCC2)cc1S(=O)(=O)Nc1ccccc1F`, the RP-LC retention time came to 676 s.
The figure for `CCSc1nnc(NC(=O)CNC(=O)c2c[nH]c3ccccc23)s1` is 669 s; for `O=C(NC1CCN(c2cc(-c3ccc(Cl)cc3)[nH]n2)C1)c1ccccc1` (centres undefined) it is 712 s.
Consider `O=c1c2cc(-c3ccccc3)nn2ccn1CC(O)c1ccccc1` (centres undefined), for which the RP-LC retention time was found to be 846 s.
Take `CC(C)n1c(=O)oc2cc(-c3noc(-c4cccc(Br)c4)n3)ccc21`: the RP-LC retention time was found to be 1340 s.
The figure for `Cc1c(Cl)cccc1NC(=O)NC1CCN(c2cc(N3CCCC3)cnn2)C1` (centres undefined) is 668 s; for `O=C1CC(NC(=O)c2cnn(-c3ccccc3)n2)CN1` (centres undefined) it is 603 s.
`Cn1c(=O)n(C)c2cc(CNc3ccc(Cl)cc3)ccc21` came in with an RP-LC retention time of 892 s.
With `O=C([C@@H]1C[C@H](F)CN1C(=O)Nc1cccc(C(F)(F)F)c1)N1CCOCC1`, the RP-LC retention time came out at 698 s.
Under `CCN(CC)CCNC(=O)c1nnc(-c2ccc(S(=O)(=O)N3CCCC3)cc2)o1` stands 670 s; under `Cc1ccc(-c2[nH]ncc2CN2CCC3(CCC3O)CC2)cc1` (centres undefined), 577 s; under `COc1cccc(Cn2cccc(S(=O)(=O)N3CCC(C)CC3)c2=O)c1`, 954 s.
The figure for `CCCc1nnc(NC(=O)C2CCN(C(=O)c3ccc(F)cc3)CC2)s1` is 721 s; for `CCc1ccc(NC(=O)Cn2cnc3nc(N4CCCC(C(=O)NC5CC5)C4)sc3c2=O)cc1` (centres undefined) it is 743 s.
The figure for `CCc1cccc(NC(=O)CN2C(=O)NC3(CCCCC3)C2=O)c1` is 805 s; for `CCCCNC(=O)CN1CCN(C(=O)c2sc3ncccc3c2-n2cccc2)CC1` it is 647 s; for `N[C@@H](Cc1ccc2oc3cc(=O)c4ccccc4c-3nc2c1)C(=O)O` it is 611 s.
